Results from PubChem BioAssay AID248 (DTP/NCI, 2004).
Several values for one entry are separate records, joined by “and”; a condition that tells them apart may be missing. Equal values may be shown once. Inconclusive results and toxic doses are left out. Cut-off read from the data, not from the text of the source: active = T/C of 150% or more; inactive = T/C below 125%.

Test system: L1210 leukemia ip in BDF1 mice, survival T/C
Assay: NCI In Vivo Anticancer Drug Screen. Data for tumor model L1210 Leukemia (intraperitoneal) in B6D2F1 (BDF1) mice
Conditions: endpoint: mean survival time, higher = longer survival
Procedure, shortened: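 Value reflects the ratio of survival in compound-treated mice to survival in vehicle-treated controls, with both groups carrying the same transplanted tumor.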

[1] = dose: 100.0 mg/kg/injection, schedule: Q01DX009 (ip), vehicle: Klucel (hydroxypropylcellulose) (HPC)
[2] = dose: 100.0 mg/kg/injection, schedule: Q04DX003 (ip), vehicle: Klucel (hydroxypropylcellulose) (HPC)
[3] = dose: 200.0 mg/kg/injection, schedule: Q01DX009 (ip), vehicle: Klucel (hydroxypropylcellulose) (HPC)
[4] = dose: 200.0 mg/kg/injection, schedule: Q04DX003 (ip), vehicle: Klucel (hydroxypropylcellulose) (HPC)
[5] = dose: 400.0 mg/kg/injection, schedule: Q01DX009 (ip), vehicle: Klucel (hydroxypropylcellulose) (HPC)
[6] = dose: 400.0 mg/kg/injection, schedule: Q04DX003 (ip), vehicle: Klucel (hydroxypropylcellulose) (HPC)
[7] = dose: 100.0 mg/kg/injection, schedule: Q04DX003 (ip), vehicle: saline with Tween-80
[8] = dose: 200.0 mg/kg/injection, schedule: Q04DX003 (ip), vehicle: saline with Tween-80
[9] = dose: 400.0 mg/kg/injection, schedule: Q04DX003 (ip), vehicle: saline with Tween-80
[10] = dose: 100.0 mg/kg/injection, schedule: Q01DX009 (ip), vehicle: saline with Tween-80
[11] = dose: 50.0 mg/kg/injection, schedule: Q01DX001 (ip), vehicle: saline
[12] = dose: 100.0 mg/kg/injection, schedule: Q01DX001 (ip), vehicle: saline
[13] = dose: 200.0 mg/kg/injection, schedule: Q01DX001 (ip), vehicle: saline
[14] = dose: 400.0 mg/kg/injection, schedule: Q01DX001 (ip), vehicle: saline
[15] = dose: 100.0 mg/kg/injection, schedule: Q01DX009 (ip), vehicle: saline
[16] = dose: 200.0 mg/kg/injection, schedule: Q01DX009 (ip), vehicle: saline
[17] = dose: 50.0 mg/kg/injection, schedule: Q01DX009 (ip), vehicle: saline
[18] = dose: 100.0 mg/kg/injection, schedule: Q04DX003 (ip), vehicle: saline
[19] = dose: 200.0 mg/kg/injection, schedule: Q04DX003 (ip), vehicle: saline

Measured: T/C

COc1ccc(N=C(C(=Nc2ccc(OC)cc2)c2ccccc2)c2ccccc2)cc1
inactive: [1] 94 % of control | [2] 96 % of control | [3] 95 % of control | [4] 95 % of control | [5] 100 % of control | [6] 95 % of control

CCCCC(N)C(=O)O (stereo not drawn)
inactive: [2] 98 % of control | [4] 95 % of control | [6] 98 % of control

C/C(=C/C(=O)O)c1ccc([N+](=O)[O-])cc1
inactive: [7] 100 % of control | [8] 96 % of control | [9] 100 % of control

Nc1cccc(Cl)c1
inactive: dose: 25.0 mg/kg/injection, schedule: Q01DX009 (ip), vehicle: saline with Tween-80 92 % of control | dose: 50.0 mg/kg/injection, schedule: Q01DX009 (ip), vehicle: saline with Tween-80 92 % of control | [10] 95 % of control | [2] 95 % of control | [4] 90 % of control

Cc1ccc(C)c(NC(=O)Nc2ncccn2)c1
inactive: [1] 102 % of control | [3] 92 % of control | [5] 97 % of control

NC(CSCC(N)=NCC1C2CC3CC(C2)CC1C3)=NCC1C2CC3CC(C2)CC1C3 (stereo not drawn)
inactive: dose: 100.0 mg/kg/injection, schedule: Q04DX002 (ip), vehicle: Klucel (hydroxypropylcellulose) (HPC) 96 % of control

O=C1c2ccccc2C(=O)N1CC(O)COc1ccc(Cl)cc1 (stereo not drawn)
inactive: [2] 92 % of control | [4] 92 % of control | [6] 91 % of control

C=CCOc1ncnc2nc[nH]c12
inactive: [7] 102 % of control | [8] 96 % of control | [9] 101 % of control

Nc1ccn(C2CCCO2)c(=O)n1 (stereo not drawn)
inactive: [11] 101 % of control | [12] 95 % of control | [13] 95 % of control | [14] 95 % of control

O=C(Nc1cc([N+](=O)[O-])ccc1F)Oc1cccc(C(F)(F)F)c1
inactive: [2] 89 % of control | [4] 97 % of control | [6] 95 % of control

Cc1nc(-c2ccc(N=Cc3ccc(N(CCOS(C)(=O)=O)CCOS(C)(=O)=O)cc3Cl)cc2)c(C)s1
inactive: dose: 12.5 mg/kg/injection, schedule: Q01DX009 (ip), vehicle: Klucel (hydroxypropylcellulose) (HPC) 114 % of control | dose: 25.0 mg/kg/injection, schedule: Q01DX009 (ip), vehicle: Klucel (hydroxypropylcellulose) (HPC) 111 % of control

COc1ccc(C=Nc2ccc(C(=O)O)cc2)cc1
inactive: dose: 100.0 mg/kg/injection, schedule: Q04DX002 (ip), vehicle: saline with Tween-80 100 % of control | dose: 200.0 mg/kg/injection, schedule: Q04DX002 (ip), vehicle: saline with Tween-80 110 % of control | dose: 400.0 mg/kg/injection, schedule: Q04DX002 (ip), vehicle: saline with Tween-80 89 % of control

CCCC#CCOCC1CO1 (stereo not drawn)
inactive: [15] 93 % of control | dose: 100.0 mg/kg/injection, schedule: Q04DX003 (ip), vehicle: saline sonified 98 % of control | [16] 89 % of control | dose: 200.0 mg/kg/injection, schedule: Q04DX003 (ip), vehicle: saline sonified 109 % of control | dose: 400.0 mg/kg/injection, schedule: Q01DX009 (ip), vehicle: saline 91 % of control | dose: 400.0 mg/kg/injection, schedule: Q04DX003 (ip), vehicle: saline sonified 104 % of control

O=C(O)/C=C(\Cl)c1ccccc1
inactive: [11] 112 % of control | [12] 112 % of control | [13] 104 % of control | [14] 106 % of control

c1ccc(C2CC(c3ccccc3)S2)cc1 (stereo not drawn)
inactive: [2] 100 % of control | [4] 105 % of control | [6] 105 % of control

O=P(NC12CC3CC(CC(C3)C1)C2)(OCc1ccccc1)OCc1ccccc1
inactive: dose: 75.0 mg/kg/injection, schedule: Q01DX009 (ip), vehicle: Klucel (hydroxypropylcellulose) (HPC) 97 % of control | dose: 150.0 mg/kg/injection, schedule: Q01DX009 (ip), vehicle: Klucel (hydroxypropylcellulose) (HPC) 90 % of control | dose: 300.0 mg/kg/injection, schedule: Q01DX009 (ip), vehicle: Klucel (hydroxypropylcellulose) (HPC) 95 % of control

O=C(O)/C=C/c1cccc(Cl)c1
inactive: dose: 100.0 mg/kg/injection, schedule: Q01DX009 (ip), vehicle: gum acacia 113 % of control | dose: 200.0 mg/kg/injection, schedule: Q01DX009 (ip), vehicle: gum acacia 104 % of control | dose: 400.0 mg/kg/injection, schedule: Q01DX009 (ip), vehicle: gum acacia 100 % of control

OCC1CC[N-]CC1.OCC1CC[N-]CC1.[Cl][Pt+2]([Cl])([Cl])[Cl]
inactive: dose: 12.5 mg/kg/injection, schedule: Q01DX009 (ip), vehicle: saline 105 % of control | dose: 25.0 mg/kg/injection, schedule: Q01DX009 (ip), vehicle: saline 94 % of control | dose: 25.0 mg/kg/injection, schedule: Q04DX003 (ip), vehicle: saline 94 % of control | [17] 103 % of control | dose: 50.0 mg/kg/injection, schedule: Q04DX003 (ip), vehicle: saline 107 % of control | [18] 104 % of control

NC1=NCN(c2ccc(Oc3ccc(S(=O)(=O)F)cc3)cc2)C(N)=N1
inactive: dose: 100.0 mg/kg/injection, schedule: Q01DX001 (ip), vehicle: Klucel (hydroxypropylcellulose) (HPC) 93 % of control | dose: 200.0 mg/kg/injection, schedule: Q01DX001 (ip), vehicle: Klucel (hydroxypropylcellulose) (HPC) 101 % of control | dose: 400.0 mg/kg/injection, schedule: Q01DX001 (ip), vehicle: Klucel (hydroxypropylcellulose) (HPC) 104 % of control

O=C(O)/C=C/C(=O)Nc1ccccc1NC(=O)/C=C/C(=O)O
inactive: [1] 101 % of control | [3] 92 % of control | [5] 97 % of control

COc1cc(C2=C3C(=O)OCC3Cc3ccccc32)ccc1OCc1ccccc1 (stereo not drawn)
inactive: [12] 97 % of control | [13] 95 % of control | [14] 98 % of control

CC(Br)CCON1C(=O)c2ccccc2C1=O (stereo not drawn)
inactive: [11] 112 % of control | [12] 102 % of control | [13] 96 % of control | [14] 96 % of control

CC(=O)OCc1ccc[nH]c1=O
inactive: [18] 104 % of control | [19] 98 % of control | dose: 400.0 mg/kg/injection, schedule: Q04DX003 (ip), vehicle: saline 104 % of control

O=C(Nc1ccccc1)c1ccc([N+](=O)[O-])cc1Cl
inactive: [2] 100 % of control | [4] 95 % of control | [6] 90 % of control

Cc1ccc(O)c(N=O)c1.[Cu+2]
inactive: [11] 97 % of control | [12] 103 % of control | [13] 103 % of control

Cc1ccc(C(=O)Oc2ccc(Cl)c(C)c2Cl)cc1
inactive: dose: 75.0 mg/kg/injection, schedule: Q01DX001 (ip), vehicle: carboxymethylcellulose (CMC) 91 % of control | dose: 150.0 mg/kg/injection, schedule: Q01DX001 (ip), vehicle: carboxymethylcellulose (CMC) 92 % of control | dose: 300.0 mg/kg/injection, schedule: Q01DX001 (ip), vehicle: carboxymethylcellulose (CMC) 92 % of control

CCCCOc1ccc(NC(=O)CCl)cc1
inactive: [7] 89 % of control

CCOP(=O)(OCC)OCCCN(CC)CC
inactive: [17] 101 % of control | [15] 96 % of control and 114 % of control | [18] 101 % of control | [16] 94 % of control and 105 % of control | [19] 98 % of control

Cc1cc(C)c(NC(=O)Nc2ccc(C(Cl)(Cl)Cl)cc2)c(C)c1
inactive: [1] 95 % of control | [3] 98 % of control | [5] 94 % of control

CCN(CC)P1(=O)NCCCO1 (stereo not drawn)
inactive: [10] 87 % of control | dose: 200.0 mg/kg/injection, schedule: Q01DX009 (ip), vehicle: saline with Tween-80 94 % of control | dose: 400.0 mg/kg/injection, schedule: Q01DX009 (ip), vehicle: saline with Tween-80 92 % of control

Nc1nccc(NC(c2ccccc2)c2ccccc2)c1N
inactive: dose: 12.5 mg/kg/injection, schedule: Q01DX001 (ip), vehicle: other 96 % of control | dose: 12.5 mg/kg/injection, schedule: Q01DX009 (ip), vehicle: DMSO 95 % of control | dose: 12.5 mg/kg/injection, schedule: Q04DX003 (ip), vehicle: other 96 % of control | dose: 25.0 mg/kg/injection, schedule: Q01DX001 (ip), vehicle: other 96 % of control | dose: 25.0 mg/kg/injection, schedule: Q04DX003 (ip), vehicle: other 96 % of control | dose: 50.0 mg/kg/injection, schedule: Q01DX001 (ip), vehicle: other 98 % of control | dose: 50.0 mg/kg/injection, schedule: Q04DX003 (ip), vehicle: other 89 % of control
